Laboratory results from the NIST ThermoML archive (doi:10.1016/j.jct.2012.08.009).
± gives the expanded uncertainty stated by the source.

Assays:
[1] = refractive index (Na D-line) (dimensionless); settings: 293.15 K; 101.33 kPa; Liquid; Standard Abbe refractometry
[2] = relative permittivity at zero frequency (dimensionless); settings: 293.15 K; 91.3 kPa; Liquid; Coaxial cylinder capacitor
[3] = Liquid; for mass density: 293.15 K, 101.33 kPa, Pycnometric method; for Normal boiling temperature: Ebulliometric method (Recirculating still)
[4] = relative permittivity at zero frequency (dimensionless); xn = mol fraction of the nth substance listed; settings: 293.15 K, 91.3 kPa, Liquid, Coaxial cylinder capacitor

SMILES | refractive index [1] | relative permittivity at zero frequency [2] | mass density [3] | Normal boiling temperature [3] | relative permittivity at zero frequency ([4]; x1 = 0.05) | relative permittivity at zero frequency ([4]; x1 = 0.1) | relative permittivity at zero frequency ([4]; x1 = 0.2) | relative permittivity at zero frequency ([4]; x1 = 0.3) | relative permittivity at zero frequency ([4]; x1 = 0.4) | relative permittivity at zero frequency ([4]; x1 = 0.5) | relative permittivity at zero frequency ([4]; x1 = 0.6) | relative permittivity at zero frequency ([4]; x1 = 0.7) | relative permittivity at zero frequency ([4]; x1 = 0.8) | relative permittivity at zero frequency ([4]; x1 = 0.9) | relative permittivity at zero frequency ([4]; x1 = 0.95) | relative permittivity at zero frequency ([4]; x1 = 0.98) | relative permittivity at zero frequency ([4]; x1 = 1) | relative permittivity at zero frequency ([4]; x2 = 0)
CC(=O)O [acetic acid] + O | – | – | – | – | 73.5 ± 0.23 | 67.7 ± 0.22 | 58 ± 0.18 | 49.4 ± 0.16 | 41.8 ± 0.13 | 34.9 ± 0.11 | 28.5 ± 0.09 | 22.41 ± 0.07 | 16.55 ± 0.05 | 11.11 ± 0.04 | 8.64 ± 0.03 | 7.25 ± 0.02 | 6.15 ± 0.02 | –
O [water] + CC(=O)O | – | – | – | – | – | – | – | – | – | – | – | – | – | – | – | – | – | 79.99 ± 0.25
CO [methanol] | 1.328 ± 0.0027 | 33 ± 0.11 | 793 ± 2.1 kg/m3 | 64.70 ± 0.51 °C | – | – | – | – | – | – | – | – | – | – | – | – | – | –
O [water] + CO | – | – | – | – | – | – | – | – | – | – | – | – | – | – | – | – | – | 79.99 ± 0.25
O [water] + CCO | – | – | – | – | – | – | – | – | – | – | – | – | – | – | – | – | – | 79.99 ± 0.25
CC(=O)O [acetic acid] | 1.372 ± 0.0028 | 6.15 ± 0.02 | 1055 ± 4.1 kg/m3 | 118.0 ± 0.51 °C | – | – | – | – | – | – | – | – | – | – | – | – | – | –
O [water] | 1.3342 ± 0.0028 | 79.99 ± 0.25 | 999 ± 2.2 kg/m3 | 100.0 ± 0.5 °C | – | – | – | – | – | – | – | – | – | – | – | – | – | –

Further lines, with some results ahead:

refractive index [1] | relative permittivity at zero frequency [2] | mass density [3] | Normal boiling temperature [3] | relative permittivity at zero frequency ([4]; x1 = 0.05) | relative permittivity at zero frequency ([4]; x1 = 0.1) | relative permittivity at zero frequency ([4]; x1 = 0.2) | relative permittivity at zero frequency ([4]; x1 = 0.3) | relative permittivity at zero frequency ([4]; x1 = 0.4) | relative permittivity at zero frequency ([4]; x1 = 0.5) | relative permittivity at zero frequency ([4]; x1 = 0.6) | relative permittivity at zero frequency ([4]; x1 = 0.7) | relative permittivity at zero frequency ([4]; x1 = 0.8) | relative permittivity at zero frequency ([4]; x1 = 0.9) | relative permittivity at zero frequency ([4]; x1 = 0.95) | relative permittivity at zero frequency ([4]; x1 = 0.98) | relative permittivity at zero frequency ([4]; x1 = 1) | SMILES | relative permittivity at zero frequency ([4]; x2 = 0)
1.3612 ± 0.0028 | 25.02 ± 0.08 | 790 ± 2.1 kg/m3 | 78.20 ± 0.51 °C | – | – | – | – | – | – | – | – | – | – | – | – | – | CCO [ethanol] | –
– | – | – | – | 74.7 ± 0.24 | 69.4 ± 0.22 | 59.98 ± 0.19 | 52.2 ± 0.17 | 46.1 ± 0.15 | 41.1 ± 0.13 | 37.01 ± 0.12 | 33.5 ± 0.11 | 30.36 ± 0.1 | 27.55 ± 0.09 | 26.28 ± 0.08 | 25.53 ± 0.08 | 25.02 ± 0.08 | CCO [ethanol] + O | –
– | – | – | – | 76.058 ± 0.24 | 72.27 ± 0.23 | 65.58 ± 0.21 | 59.67 ± 0.19 | 54.7 ± 0.17 | 50.22 ± 0.16 | 46.22 ± 0.15 | 42.54 ± 0.14 | 39.18 ± 0.12 | 36.1 ± 0.12 | 34.65 ± 0.11 | 33.72 ± 0.11 | 33 ± 0.11 | CO [methanol] + O | –
